As usually defined, the EC50 is the concentration needed to bring the measured effect to its halfway point.

SMILES strings stand for the structures.

For test [1], the target named is T1, recombinant human mGlu4a receptor (Homo sapiens, UniProt Q14833).
T1 construct: expressed in transfected cells
Kind of test: mGluR4 assay on T-Rex-293 cell line; cyclic AMP level by HTRF in the presence of forskolin and glutamate. It counts as cell-based. Particulars: for Emax: T-REx-293, percent of mGluR4 activity with tested compound and glutamate at maximally activating concentration (100%), mean of at least three independent experiments, read-out: % Glu Max; for EC50: EC50 for potentiation of glutamate response, forskolin 10 uM, mean of at least three independent experiments in duplicates. From the text: mGluR4 assay on T-Rex™-293 Cell line - expressing recombinant human mGlu4 receptor.
The compounds of the present invention are positive allosteric modulator of III group of metabotropic glutamate receptors, subtype 4. Their activity was examined on recombinant human mGlu4a receptor by detecting level of cyclic AMP in the presence of forskolin, adenylyl cyclase activator. The positive allosteric modulators provided in the present invention are expected to increase the functional activity and/or maximal efficacy of glutamate or other orthosteric agonists at mGluR4 receptor.
Plazmid construct. The cDNA fragment encoding human metabotropic receptor 4, variant 1 (accession number: NM_000841, NCBI Nucleotide Database) was cloned into the BamHI/NotI sites of pcDNA5/FRT/TO vector, under the control of a tetracycline regulated promoter (Invitrogen, Poland).
Cell culture and transfection. HEK293 cell line containing an inducible expression system (Flp-In T-Rex 293 cell line, Invitrogen, Poland) was maintained in Dulbecco's modified Eagle's medium supplemented with 10% fetal bovine serum, 2mM L-Glutamine (supplemented DMEM, LONZA, Poland), blastycidin and zeocin. T-Rex 293 cells were transfected with mixture of pTet-hmGluR4 and pOG44 (Invitrogen, Poland) plazmids and GeneJuice transfection reagent (Merck Millipore, Poland) according to the manufacturer's instructions. Cells were grown in supplemented DMEM with hygromycin B (75µg/ml) allowed selection of cells with stably integrated one copy of pTet-hmGluR4 plazmid. Expression of mGluR4 is induced by Tetracycline treatment.
Cell preparation before assay. Stable transfected cells were grown to 60% confluency with supplemented DMEM. Two days before experiment mGluR4 expression was induced by adding tetracycline in concentration 0,75µg/ml. 40h before experiment cells were incubated in a L-Glutamine free medium.
Cyclic AMP measurement. cAMP was measured quantitatively by cAMP dynamic 2 (Cisbio Biossays, France) according to manufacture instructions. cAMP dynamic 2 assay (Cisbio Biossays, France) is method based on homogenous time-resolved fluorescence. cAMP dynamic 2 is a competitive immunoassay between native cAMP produced by cells and the cyclic AMP labeled with, a fluorescence dye. The tracer binding is visualized by antibody anti - cAMP labeled with Eu^3+ cryptate. The specific signal is inversely proportional to the concentration of cAMP in the sample.
Incubation of cells with all compounds was performed in 96 well plates. Each well were supplement with HHB containing 130 mM NaCl, 5,4 mM KCl, 1,8 mM CaCl2, 0,8 mM MgSO4, 0,9 mM NaH2PO4, 25 mM glucose and 20 mM HEPES, pH 7.4 with or without glutamate and with or without tested compound and forskolin (10 uM final concentration) in total volume of 50 ul. Assay was started by adding 50 ul of HHB buffer with cells to each well. Assay was performed in 37° C. After 5 min of incubation 10 ul of suspension containing 2000 cells were transferred to white 384 well plates (784080, Greiner bio-one) containing of 5 ul of cAMP-d2 conjugate in lysis buffer (cAMP dynamic 2, Cisbio Bioassays, France) in each well. Than was added 5 ul of cryptate conjugate in lysis buffer (cAMP dynamic 2, Cisbio Bioassays, France). After 1 h incubation in room temperature the fluorescence intensity of the assay plate were measured at 314 nm excitation, and 620 nm and 665 nm emission in Infinite M1000 (Tecan) microplate reader. Data were expressed as the ratio of 665 nm/620 nm. All liquid handling operations were performed using EVO 2000 system (Tecan, Switzerland).
Potentiation of the glutamate response of mGluR4 receptor by the invented compounds was observed as a decrease of EC50 value for the glutamate in the presence of these molecules in the compare of EC50 value in the absence of compounds. A decrease in the EC50 for glutamate in the presence of tested compound was an indicator of degree of mGluR4 positive allosteric modulation at a given concentration of the sample compound. […]
On the technique in general: In TR-FRET formats the signal depends on donor and acceptor labels being close together.

Another test deals with mGluR1 (Homo sapiens, UniProt Q13255). Particulars: cited from earlier work.
The target of another test is mGluR8 (Homo sapiens, UniProt O00222). Particulars: cited from earlier work.
Chain of mGluR8 (O00222 34-908, species assumed): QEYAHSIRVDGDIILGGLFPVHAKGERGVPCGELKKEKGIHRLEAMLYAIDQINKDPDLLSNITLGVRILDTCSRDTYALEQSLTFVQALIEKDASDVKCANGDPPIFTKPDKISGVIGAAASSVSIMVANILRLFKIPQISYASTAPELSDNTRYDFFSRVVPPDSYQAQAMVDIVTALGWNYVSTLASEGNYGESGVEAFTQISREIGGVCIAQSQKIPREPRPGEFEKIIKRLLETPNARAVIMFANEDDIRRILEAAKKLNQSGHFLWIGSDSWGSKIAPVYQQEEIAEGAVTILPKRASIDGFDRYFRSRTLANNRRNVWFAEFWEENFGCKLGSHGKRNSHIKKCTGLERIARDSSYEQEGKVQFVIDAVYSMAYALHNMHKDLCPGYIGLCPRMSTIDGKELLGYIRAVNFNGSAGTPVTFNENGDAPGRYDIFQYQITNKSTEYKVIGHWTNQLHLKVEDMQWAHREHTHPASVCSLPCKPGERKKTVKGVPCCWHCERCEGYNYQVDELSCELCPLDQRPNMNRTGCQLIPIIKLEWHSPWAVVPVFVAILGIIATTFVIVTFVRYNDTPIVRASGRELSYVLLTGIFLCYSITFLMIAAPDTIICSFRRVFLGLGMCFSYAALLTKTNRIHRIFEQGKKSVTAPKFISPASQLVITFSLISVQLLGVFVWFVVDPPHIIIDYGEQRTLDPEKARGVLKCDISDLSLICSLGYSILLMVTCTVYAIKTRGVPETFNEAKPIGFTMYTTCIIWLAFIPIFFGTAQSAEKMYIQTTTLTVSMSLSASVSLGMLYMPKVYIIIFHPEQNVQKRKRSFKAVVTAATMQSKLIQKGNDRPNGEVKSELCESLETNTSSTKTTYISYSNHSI

T1 sequence (Q14833 33-912): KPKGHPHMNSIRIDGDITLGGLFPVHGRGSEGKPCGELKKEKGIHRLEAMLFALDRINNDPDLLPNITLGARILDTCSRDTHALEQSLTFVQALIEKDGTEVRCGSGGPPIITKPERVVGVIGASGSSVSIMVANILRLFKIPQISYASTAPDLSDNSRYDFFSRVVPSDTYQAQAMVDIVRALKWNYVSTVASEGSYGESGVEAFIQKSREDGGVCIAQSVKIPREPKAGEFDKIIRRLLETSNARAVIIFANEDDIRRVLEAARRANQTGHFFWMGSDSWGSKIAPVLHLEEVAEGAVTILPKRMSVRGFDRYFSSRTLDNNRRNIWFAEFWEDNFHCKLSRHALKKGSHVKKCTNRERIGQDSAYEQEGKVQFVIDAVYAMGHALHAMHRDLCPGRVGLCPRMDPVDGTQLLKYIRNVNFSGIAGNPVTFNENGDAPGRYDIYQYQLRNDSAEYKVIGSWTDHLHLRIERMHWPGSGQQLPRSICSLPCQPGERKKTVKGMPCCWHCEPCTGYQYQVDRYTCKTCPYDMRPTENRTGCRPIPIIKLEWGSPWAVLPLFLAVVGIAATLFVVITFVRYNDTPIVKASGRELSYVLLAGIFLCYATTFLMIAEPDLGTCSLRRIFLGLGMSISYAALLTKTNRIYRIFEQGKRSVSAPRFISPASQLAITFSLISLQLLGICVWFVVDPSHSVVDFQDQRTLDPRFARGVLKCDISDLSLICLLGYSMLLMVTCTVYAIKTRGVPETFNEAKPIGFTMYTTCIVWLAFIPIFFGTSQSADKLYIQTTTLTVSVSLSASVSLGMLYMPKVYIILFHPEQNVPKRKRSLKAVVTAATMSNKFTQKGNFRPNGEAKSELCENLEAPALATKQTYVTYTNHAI
Chain of mGluR1 (Q13255 19-1194): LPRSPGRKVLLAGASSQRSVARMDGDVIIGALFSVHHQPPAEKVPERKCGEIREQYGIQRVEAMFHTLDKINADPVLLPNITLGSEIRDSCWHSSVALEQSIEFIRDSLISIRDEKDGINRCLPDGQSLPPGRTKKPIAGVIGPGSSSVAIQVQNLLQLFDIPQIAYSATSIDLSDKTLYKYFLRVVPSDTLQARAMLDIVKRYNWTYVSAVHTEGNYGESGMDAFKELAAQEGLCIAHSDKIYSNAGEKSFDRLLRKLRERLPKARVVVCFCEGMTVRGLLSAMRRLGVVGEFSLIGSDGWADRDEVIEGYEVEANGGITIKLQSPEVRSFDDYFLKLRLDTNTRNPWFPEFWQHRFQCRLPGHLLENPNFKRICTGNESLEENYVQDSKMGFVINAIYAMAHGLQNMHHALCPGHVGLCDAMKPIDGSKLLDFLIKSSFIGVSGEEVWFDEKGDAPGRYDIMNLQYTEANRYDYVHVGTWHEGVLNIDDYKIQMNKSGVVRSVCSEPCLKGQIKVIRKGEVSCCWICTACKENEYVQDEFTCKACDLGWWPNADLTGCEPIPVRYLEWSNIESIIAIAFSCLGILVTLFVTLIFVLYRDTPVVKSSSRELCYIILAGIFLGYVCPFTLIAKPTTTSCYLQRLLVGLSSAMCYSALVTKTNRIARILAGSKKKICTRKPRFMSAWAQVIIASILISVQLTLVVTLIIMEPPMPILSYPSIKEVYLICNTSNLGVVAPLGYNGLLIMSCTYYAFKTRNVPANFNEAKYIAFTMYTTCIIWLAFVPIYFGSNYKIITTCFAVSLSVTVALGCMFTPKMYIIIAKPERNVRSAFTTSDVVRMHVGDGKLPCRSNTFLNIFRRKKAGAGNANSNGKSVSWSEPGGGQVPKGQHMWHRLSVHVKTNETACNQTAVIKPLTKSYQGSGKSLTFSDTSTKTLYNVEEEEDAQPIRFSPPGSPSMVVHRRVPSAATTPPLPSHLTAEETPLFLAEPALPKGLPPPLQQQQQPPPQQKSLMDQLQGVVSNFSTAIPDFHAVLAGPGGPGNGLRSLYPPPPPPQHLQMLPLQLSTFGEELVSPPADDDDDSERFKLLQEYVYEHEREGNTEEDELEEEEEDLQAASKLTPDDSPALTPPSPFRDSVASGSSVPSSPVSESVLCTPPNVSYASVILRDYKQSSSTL

Consider `O=C(Nc1ccc(-c2noc(-c3ccc(F)cc3Cl)n2)c(Cl)c1)c1ccccn1` [Example 22, N-{3-chloro-4-[5-(2-chloro-4-fluorophenyl)-1,2,4-oxadiazol-3-yl]phenyl}pyridine-2-carboxamide], for which, in test [1], the Emax was in the range of 99.2 to 119%.
The same measure, in the same setting: the value for `COc1cc(NC(=O)c2cccc(F)n2)ccc1-c1noc(-c2ccccc2F)n1` [Example 40, 6-fluoro-N-{4-[5-(2-fluorophenyl)-1,2,4-oxadiazol-3-yl]-3-methoxyphenyl} pyridine-2-carboxamide] was 105 to 135%.
Still for that read-out and setting: the value for `O=C(Nc1ccc(-c2nc(-c3ccccc3)no2)cc1)c1ccccc1` [Example 47, N-[4-(3-phenyl-1,2,4-oxadiazol-5-yl)phenyl]benzamide] was 99.2 to 119%; that for `O=C(Nc1ccc(-c2noc(-c3ccc(F)cc3Cl)n2)c(F)c1)c1ccccn1` [Example 26, N-{4-[5-(2-chloro-4-fluorophenyl)-1,2,4-oxadiazol-3-yl]-3-fluorophenyl} pyridine-2-carboxamide] was 105 to 135%; that for `COc1cc(NC(=O)c2ccccn2)ccc1-c1noc(-c2ccccc2Cl)n1` [Example 17, N-{4-[5-(2-chlorophenyl)-1,2,4-oxadiazol-3-yl]-3-methoxyphenyl}pyridine-2-carboxamide] was 99.2 to 119%.
On the same count and under the same terms, the figure for `O=C(Nc1ccc(-c2noc(-c3ccccc3Cl)n2)c(C(F)(F)F)c1)c1ccccn1` [Example 29, N-{4-[5-(2-chlorophenyl)-1,2,4-oxadiazol-3-yl]-3-(trifluoromethyl)phenyl} pyridine-2-carboxamide] is 99.2 to 119%.
For the compound `Cc1cc(NC(=O)c2ccccn2)ccc1-c1noc(-c2ccccc2)n1` [Example 30, N-[3-methyl-4-(5-phenyl-1,2,4-oxadiazol-3-yl)phenyl]pyridine-2-carboxamide], in test [1], the EC50 is less than 300 nM and the Emax was in the range of 105 to 118%.
Regarding `O=C(Nc1ccc(-c2nc(-c3ccccc3)no2)cc1)c1ccc([N+](=O)[O-])cc1` [Example 50, 4-nitro-N-[4-(3-phenyl-1,2,4-oxadiazol-5-yl)phenyl]benzamide], the Emax in test [1] is 105 to 135%.
Consider `O=C(Nc1ccc(-c2nc(-c3ccccc3)no2)cc1)c1cccc(Cl)c1` [Example 48, 3-chloro-N-[4-(3-phenyl-1,2,4-oxadiazol-5-yl)phenyl]benzamide], for which the Emax in test [1] lay within 99.2 to 119%.
With `COc1ccc(C(=O)Nc2ccc(-c3nc(-c4ccccc4)no3)cc2)cc1` [Example 49, 4-methoxy-N-[4-(3-phenyl-1,2,4-oxadiazol-5-yl)phenyl]benzamide], in test [1], the EC50 was less than 300 nM and the Emax is 105 to 118%.
On the same counts, the results for `O=C(Nc1ccc(-c2noc(-c3ccccc3)n2)c(C(F)(F)F)c1)c1ccccn1` [Example 28] are less than 300 nM and 105 to 118%.
On to `COc1cc(NC(=O)c2nc(Cl)ccc2Cl)ccc1-c1noc(-c2ccccc2F)n1` [Example 41, 3,6-dichloro-N-{4-[5-(2-fluorophenyl)-1,2,4-oxadiazol-3-yl]-3-methoxyphenyl}pyridine-2-carboxamide], for which the Emax in test [1] lay in the range of 99.2 to 119%.
For `O=C(Nc1ccccc1)C12CC1C(=NO)c1ccccc1O2` (single isomer, unassigned; (-)) [(-)PHCCC, N-phenyl-7-(hydroxyimino)cyclopropan[b]chromen-1a-carboxamide], at mGluR1, the “partial antagonist of mGluR1” value is recorded as 30%.
Turning to `COc1cc(NC(=O)c2ccncn2)ccc1-c1noc(-c2ccccc2Cl)n1` [Example 38, N-{4-[5-(2-chlorophenyl)-1,2,4-oxadiazol-3-yl]-3-methoxyphenyl} pyrimidine-4-carboxamide], the Emax in test [1] lay in the range of 105 to 135%.
Consider `COc1cc(NC(=O)c2cccc(Cl)n2)ccc1-c1noc(-c2ccccc2Cl)n1` [Example 34, 6-chloro-N-{4-[5-(2-chlorophenyl)-1,2,4-oxadiazol-3-yl]-3-methoxyphenyl}pyridine-2-carboxamide], for which the Emax in test [1] was in the range of 99.2 to 119%.
As to `Cn1cccc1C(=O)Nc1ccc(-c2nc(-c3ccccc3)no2)cc1` [Example 54, 1-methyl-N-[4-(3-phenyl-1,2,4-oxadiazol-5-yl)phenyl]-1H-pyrrole-2-carboxamide], the Emax in test [1] is 99.2 to 119%.
The same measure, in the same setting: the value for `COc1cc(NC(=O)c2ncc(Cl)cc2F)ccc1-c1noc(-c2ccccc2Cl)n1` [Example 33, 5-chloro-N-{4-[5-(2-chlorophenyl)-1,2,4-oxadiazol-3-yl]-3-methoxyphenyl}-3-fluoropyridine-2-carboxamide] was 99.2 to 119%; that for `COc1ccc(-c2nc(-c3ccc(NC(=O)c4ccncc4)cc3)no2)cc1` [Example 6, N-{4-[5-(4-methoxyphenyl)-1,2,4-oxadiazol-3-yl]phenyl}pyridine-4-carboxamide] was 105 to 135%.
Regarding `COc1ccccc1-c1nc(-c2ccc(NC(=O)c3ccccn3)cc2F)no1` [Example 27, N-{4-[5-(2-methoxyphenyl)-1,2,4-oxadiazol-3-yl]-3-fluorophenyl}pyridine-2-carboxamide], in test [1], the EC50 was less than 300 nM and the Emax was in the range of 105 to 118%.
For `O=C(Nc1ccc(-c2noc(-c3ccccc3Cl)n2)c(Cl)c1)c1cccc(F)n1` [Example 42], the Emax in test [1] lay in the range of 99.2 to 119%.
Consider `COc1cc(NC(=O)c2cccc(F)n2)ccc1-c1noc(-c2ccccc2Cl)n1` [Example 32, N-{4-[5-(2-chlorophenyl)-1,2,4-oxadiazol-3-yl]-3-methoxyphenyl}-6-fluoropyridine-2-carboxamide], for which, in test [1], the Emax lay in the range of 99.2 to 119%.
The same measure, in the same setting: the figure for `O=S(=O)(Nc1ccc(F)cc1F)c1ccc(-c2noc(-c3ccccn3)n2)cc1` [Example 46, N-(2,4-difluorophenyl)-4-[5-(pyridin-2-yl)-1,2,4-oxadiazol-3-yl]benzene-1-sulfonamide] is 99.2 to 119%.
For the compound `N[C@H](C(=O)O)c1ccc(C(=O)O)c(C(=O)O)c1` [(S)-3,4-DCPG], the “selectivity for mGluR8 over mGluR4” value at mGluR8 was 100 fold.
Regarding `O=S(=O)(Nc1ccccc1Cl)c1ccc(-c2noc(-c3ccccc3)n2)cc1` [Example 44, N-(2-chlorophenyl)-4-(5-phenyl-1,2,4-oxadiazol-3-yl)benzene-1-sulfonamide], the Emax in test [1] is 99.2 to 119%.
Still for that read-out and setting: the value for `COc1cc(NC(=O)c2ccccn2)ccc1-c1noc(-c2ccc(F)cc2Cl)n1` [Example 19, N-{4-[5-(2-chloro-4-fluorophenyl)-1,2,4-oxadiazol-3-yl]-3-methoxyphenyl} pyridine-2-carboxamide] was 99.2 to 119%; that for `Cc1cc(NC(=O)c2ccccn2)ccc1-c1noc(-c2ccccc2Cl)n1` [Example 31, N-{4-[5-(2-chlorophenyl)-1,2,4-oxadiazol-3-yl]-3-methylphenyl}pyridine-2-carboxamide] was 105 to 135%.

Values taken from EP2853532B1, “1,2,4-oxadiazole derivatives as allosteric modulators of metabotropic glutamate receptors belonging to group III” (Instytut Farmakologii Polskiej Akademii Nauk, priority 2013, dated 2015).
